≈ marks a conversion by molar mass, not a printed value.

This test has as its system Susceptible (H37Rv) strain of Mycobacterium tuberculosis. Nature of the test: Resazurin Microplate Assay (REMA), anti-tubercular activity, H37Rv. Format: cell-based. The note with it: 192 h, read-out: MIC Susceptible (H37Rv). On the technique in general: Resazurin is reduced to fluorescent resorufin, in cell work by metabolically active cells.
For the molecule `COc1ccc(Cl)cc1-n1ncc(-c2nnc(-c3cccc(F)c3)o2)c1C` [Compound 7g, 2-(1-(5-Chloro-2-methoxyphenyl)-5-methyl-1H-pyrazol-4-yl)-5-(3-fluorophenyl)-1,3,4-oxadiazole], the MIC was 8 µg/mL (≈ 20.8 µM). Consider `COc1ccc(Cl)cc1-n1ncc(-c2nnc(-c3ccc(Br)c(C)c3)o2)c1C` [Compound 7f, 2-(4-Bromo-3-methylphenyl)-5-(1-(5-chloro-2-methoxyphenyl)-5-methyl-1H-pyrazol-4-yl)-1,3,4-oxadiazole], for which the MIC is 32 µg/mL (≈ 69.6 µM).

Turning to `COc1ccc(Cl)cc1-n1ncc(-c2nnc(-c3ccc(Br)cc3)o2)c1C` [Compound 7e, 2-(4-Bromophenyl)-5-(1-(5-chloro-2-methoxyphenyl)-5-methyl-1H-pyrazol-4-yl)-1,3,4-oxadiazole], the MIC turned out to be 8 µg/mL (≈ 17.9 µM).

For the molecule `COc1ccc(Cl)cc1-n1ncc(-c2nnc(-c3cc(Cl)cc(Cl)c3)o2)c1C` [Compound 7h, 2-(1-(5-Chloro-2-methoxyphenyl)-5-methyl-1H-pyrazol-4-yl)-5-(3,5-dichlorophenyl)-1,3,4-oxadiazole], the MIC is 4 µg/mL (≈ 9.18 µM). To `COc1ccc(Cl)cc1-n1ncc(-c2nnc(-c3ccc(F)cc3)o2)c1C` [Compound 7b, 2-(1-(5-Chloro-2-methoxyphenyl)-5-methyl-1H-pyrazol-4-yl)-5-(4-fluorophenyl)-1,3,4-oxadiazole] belongs 4 µg/mL (≈ 10.4 µM); to `COc1ccc(Cl)cc1-n1ncc(-c2nnc(-c3ccc(C)c([N+](=O)[O-])c3)o2)c1C` [Compound 7j, 2-(1-(5-Chloro-2-methoxyphenyl)-5-methyl-1H-pyrazol-4-yl)-5-(4-methyl-3-nitrophenyl)-1,3,4-oxadiazole], 32 µg/mL (≈ 75.1 µM). The figure for `COc1ccc(Cl)cc1-n1ncc(-c2nnc(-c3ccc(C)c(Br)c3)o2)c1C` [Compound 7c, 2-(3-Bromo-4-methylphenyl)-5-(1-(5-chloro-2-methoxyphenyl)-5-methyl-1H-pyrazol-4-yl)-1,3,4-oxadiazole] is 16 µg/mL (≈ 34.8 µM). The figure for `COc1ccc(Cl)cc1-n1ncc(-c2nnc(-c3ccc(Cl)cc3)o2)c1C` [Compound 7a, 2-(1-(5-Chloro-2-methoxyphenyl)-5-methyl-1H-pyrazol-4-yl)-5-(4-chlorophenyl)-1,3,4-oxadiazole] is 4 µg/mL (≈ 9.97 µM); for `COc1ccc(Cl)cc1-n1ncc(-c2nnc(-c3ccc(Cl)c(Cl)c3)o2)c1C` [Compound 7i, 2-(1-(5-Chloro-2-methoxyphenyl)-5-methyl-1H-pyrazol-4-yl)-5-(3,4-dichlorophenyl)-1,3,4-oxadiazole] it is 16 µg/mL (≈ 36.7 µM). For `COc1ccc(Cl)cc1-n1ncc(-c2nnc(-c3ccccc3)o2)c1C` [Compound 7d, 2-(1-(5-Chloro-2-methoxyphenyl)-5-methyl-1H-pyrazol-4-yl)-5-phenyl-1,3,4-oxadiazole], the MIC was 16 µg/mL (≈ 43.6 µM).

For orientation: MIC means the lowest concentration that inhibits growth of the organism.
